The values that follow come from patent US8883512B1, “Method for diagnosing gestational diabetes, preeclampsia, and fetal growth restriction” (priority 2011, dated 2014).

The conditions of data set [1]: better designed (low bias) trials of antioxidant supplements; cited from earlier work.
Data set [2] has as its system pregnant Sprague-Dawley rats. The experiment in a line: RAR-alpha antagonist Ro41-5253 in the STZ (75 mg/kg) model of gestational diabetes. Format: in vivo, rat. How it is done:
(§1) The specific aims of this second experiment were to test the hypothesis that complications associated with GDM could be ameliorated with the retinoic acid receptor-alpha (RAR-alpha) antagonist, Ro41-5253. On day 6 of gestation, Sprague-Dawley rats were randomly assigned to one of five groups: 1) saline-infused controls; 2) STZ, 75 mg/kg I.P.; 3) STZ, 50 mg/kg I.P.; 4) STZ, 75+Ro41-5253 (0.5 mg/kg I.P. daily for 10 d); or 5) STZ, 75+Ro41-5253 (1.0 mg/kg I.P. daily for 10 days). Ro41-5253 was provided as a gift from Roche. On day 19, after carotid artery catheters were implanted for measurement of arterial pressure, the animals were sacrificed, fetal and placental weights were determined, and blood samples were obtained to measure liver enzymes and glucose.

In data set [3] the test system is pregnant Sprague-Dawley rats. The experiment in a line: Streptozotocin (STZ) animal model of gestational diabetes and preeclampsia: blood glucose, liver enzymes, arterial pressure, fetal and placental weights. Format: in vivo, rat. Here is the method: Pregnant Sprague-Dawley rats on day 6 of gestation were randomly assigned to STZ at 75 mg/kg I.P. or saline-infusion. On day 19, carotid artery catheters were implanted for measurement of arterial pressure, after which the animals were sacrificed, fetal and placental weights determined and blood samples obtained to measure liver enzymes and glucose. Subsequently, using the same procedure, a separate group of pregnant rats (n=10/group) was randomly assigned to receive STZ at 75 mg/kg I.P. or saline infusion. Serum concentrations of retinol, retinoic acid, and retinyl esters were determined in these animals by HPLC on Day 20. Retinoid toxicity was defined as the percentage of retinyl esters >10%.
as §1

Where [4] appears, read: STZ 75 mg/kg, I.P. Ro41-5253, listed as retinoid receptor antagonist.

Entries after “also recorded” stand apart in the source; their conditions may differ.

In the case of `CC1=C(/C=C/C(C)=C/C=C/C(C)=C/C=C/C=C(C)/C=C/C=C(C)/C=C/C2=C(C)CCCC2(C)C)C(C)(C)CCC1` [beta-carotene], in data set [1], the “increased risk of mortality” value is recorded as 7%.
Regarding `CCCCCCCOc1cc2c(cc1/C(C)=C/c1ccc(C(=O)O)cc1)C(C)(C)CCS2(=O)=O` [Ro41-5253], the “effect on blood glucose following STZ” value in data set [2] (Ro41-5253 0.5 mg/kg I.P. daily for 10 d, STZ 75 mg/kg) is recorded as “not by the lower dose; also recorded: no effect”; in data set [2] (Ro41-5253 1.0 mg/kg I.P. daily for 10 days, STZ 75 mg/kg), “reduced; also recorded: decrease of approximately one-third”. Further, in data set [2] (STZ 75 mg/kg, FIG. 3), the “reduction of alkaline phosphatase levels induced by STZ” value is “about 20%”. Also, the “effect on alanine aminotransferase (ALT) elevation following STZ” value is listed as “markedly reduced (almost to control levels)” in data set [2] (STZ 75 mg/kg, I.P. Ro41-5253) and “markedly reduced” in data set [2] (setting [4]). The “effect on aspartate aminotransferase (AST) elevation following STZ” value in data set [2] (STZ 75 mg/kg, I.P. Ro41-5253) is reported as “markedly reduced (almost to control levels)”; in data set [2] (setting [4]), “markedly reduced”. Besides, the “effect on alkaline phosphatase (AP) levels induced by STZ” value in data set [2] (STZ 75 mg/kg, I.P. Ro41-5253, listed as RAR-alpha antagonist) is listed as “increased alkaline phosphatase levels in all animals, with or without”. In data set [2] (STZ model, day 19), the placental weights result is “unaffected”. Moreover, the “effect on trend towards increased arterial pressure” value in data set [2] (higher dose of STZ, doses investigated) is recorded as “did not appear to be ameliorated”.
As to `CN(N=O)C(=O)N[C@H]1C(O)O[C@H](CO)[C@@H](O)[C@@H]1O` (mixture of isomers) [STZ, streptozotocin], the “blood glucose levels (mean)” value in data set [3] (STZ 75 mg/kg I.P. on gestation day 6, blood on day 19, saline controls 104) is given as 533 mg/dL. Moreover, in data set [3] (STZ 75 mg/kg I.P., controls 4.6), the “pup weights (mean)” value is 1.4 g. In addition, the “alanine aminotransferase (mean)” value in data set [3] (STZ 75 mg/kg I.P., controls 63) was found to be 326 U/L. In addition, the “alkaline phosphatase (mean)” value in data set [3] (STZ 75 mg/kg I.P., controls 123) was 576 U/L. Further, the “asparate aminotransferase levels (mean)” value in data set [3] (STZ 75 mg/kg I.P., controls 152) is recorded as 842 U/L. The placental weights entry in data set [3] (STZ, day 19) is reported as “unaffected”. Also, the “fetus size versus controls” value in data set [3] (groups receiving 75 mg/kg of STZ alone) is recorded as “smaller than controls”. In addition, the arterial pressure entry in data set [3] (groups receiving both doses of STZ, P=0.1386) is given as “non-significant trend towards increased levels”.
On to vitamin E, for which the “increased risk of mortality” value in data set [1] is given as 4%.
As for vitamin A, the “increased risk of mortality” value in data set [1] is listed as 16%.
